Assay [1] has as its system U118MG (malignant glioma). Briefly: Cytotoxicity profiling (Alamar Blue), U118MG. The class given is cell-based. Particulars: Homo sapiens, U-118-MG, 72-hour treatment. The method, then: FIG. 8. Cytotoxicity of pantaphos across various cancer cell lines. Assays were conducted as described (mBio. 2021 Feb. 2; 12(1):e03402-20), using the Alamar Blue method with 72-hour treatment using Raptinal ([…]) as Dead cell control; n=3. Cell seeding densities: CT26 (colon carcinoma) 2000 c/w; HOS (osteosarcoma) 2500 c/w; ES-2 (ovarian carcinoma), HCT-116 (colorectal carcinoma), A-549 (lung carcinoma), A-172 (glioblastoma), D54 (glioblastoma), U87 (glioblastoma), T98G (glioblastoma), SK-ML-28 (melanoma), MCF-7 (breast cancer), AM38 (glioblastoma) and MDA-MB-231 (breast cancer) 3000 c/w; U118MG (malignant glioma) 4000 c/w; HepG2 (liver cancer) 8000 c/w. c/w=cells per well. […]
Cell culture cytotoxicity screening. The compounds were evaluated for their ability to kill cancer cell lines in culture, using HOS (osteosarcoma); ES-2 (ovarian cancer); HCT 116 (colon cancer); A549 (lung carcinoma); and A172 (glioma) cells. Human skin fibroblast cells (HFF-1) were also assessed. […] 72 hours post-treatment, cell viability was assessed using the Alamar Blue method (http://www.bio-rad-antibodies.com/measuring-cytotoxicity-proliferation-spectrophotometry-fluorescence-alamarBlue.html). […] Conversion of Alamar Blue was measured with a plate reader (SpectraMax M3; Molecular Devices) by fluorescence (excitation wavelength: 555 nm; emission wavelength: 585 nm; cutoff 570 nm; autogain). […]
Background: Alamar Blue is a resazurin reagent that responds to reducing activity.

Assay [2] has as its system MDA-MB-231 (breast cancer). Briefly: Cytotoxicity profiling (Alamar Blue), MDA-MB-231. Type of assay: cell-based, human. The protocol:
(§1) FIG. 8. Cytotoxicity of pantaphos across various cancer cell lines. Assays were conducted as described (mBio. 2021 Feb. 2; 12(1):e03402-20), using the Alamar Blue method with 72-hour treatment using Raptinal ([…]) as Dead cell control; n=3. Cell seeding densities: CT26 (colon carcinoma) 2000 c/w; HOS (osteosarcoma) 2500 c/w; ES-2 (ovarian carcinoma), HCT-116 (colorectal carcinoma), A-549 (lung carcinoma), A-172 (glioblastoma), D54 (glioblastoma), U87 (glioblastoma), T98G (glioblastoma), SK-ML-28 (melanoma), MCF-7 (breast cancer), AM38 (glioblastoma) and MDA-MB-231 (breast cancer) 3000 c/w; U118MG (malignant glioma) 4000 c/w; HepG2 (liver cancer) 8000 c/w. c/w=cells per well. IC50 and Emax values shown in Table 6 were extracted from the raw data plotted in FIG. 8.
(§2) Cell culture cytotoxicity screening. The compounds were evaluated for their ability to kill cancer cell lines in culture, using HOS (osteosarcoma); ES-2 (ovarian cancer); HCT 116 (colon cancer); A549 (lung carcinoma); and A172 (glioma) cells. Human skin fibroblast cells (HFF-1) were also assessed. Cells were seeded (3000 cells well^−1 for ES-2, HCT 116, A549 and A172; 4000 cells well^−1 for HFF-1 and 2500 cells well^−1 for HOS) in a 96-well plate and allowed to attach overnight. Cells were treated with pantaphos in water. The concentrations of the tested compounds were 5 nM to 100 μM (1% water final; 100 μl well^−1). Raptinal (50 μM) was used as a dead control. On each plate, five technical replicates per compound were performed. 72 hours post-treatment, cell viability was assessed using the Alamar Blue method (http://www.bio-rad-antibodies.com/measuring-cytotoxicity-proliferation-spectrophotometry-fluorescence-alamarBlue.html). […] Conversion of Alamar Blue was measured with a plate reader (SpectraMax M3; Molecular Devices) by fluorescence (excitation wavelength: 555 nm; emission wavelength: 585 nm; cutoff 570 nm; autogain). Percentage death was determined by normalizing to water-treated cells and Raptinal-treated cells. […]

For the next assay, the system named is CT26 (colon carcinoma). The assay is described as follows: Cytotoxicity profiling (Alamar Blue), CT26. The class given is cell-based. The method, then: as §1, §2
Another assay has as its system Candida albicans SN250. Briefly: Fungicidal bioassay (MIC), Candida albicans. Type of assay: cell-based. The method, then:
Bacteria, plasmids and growth conditions. Bacterial strains, plasmids and primers used in this study are described in Table 3 and 4. General chemical and molecular biology reagents were purchased from Sigma-Aldrich or New England Biolabs. Phosphinothricin (glufosinate) was purchased from GoldBio (CAS #77182-82-2). Standard bacterial growth media were prepared as described (Current Protocols in Molecular Biology 2019, 125:e81, e82, e83). E. coli strains were typically grown at 37° C.; P. ananatis strains were typically grown at 30° C. Phosphonate induction media (PIM) was prepared as follows: 8.37 g/L MOPS, 0.72 g/L Tricine, 0.58 g/L NaCl, 0.51 g/L NH4Cl, 1.6 g/L KOH, 0.1 g/L MgCl2·6H2O, 0.05 g/L K2SO4, 0.2 g/L K2HIPO4 were dissolved H2O and steam sterilized for 20 min at 121° C. […]
(§3) Fungicidal bioassays. […] Minimum Inhibitory Concentration (MIC) was determined visually by finding the concentration of compound at which there was no visual difference between that concentration and the uninoculated media control.

Assay [3] has as its system Saccharomyces cerevisiae X2180-1A. The assay is described as follows: Fungicidal bioassay (MIC), Saccharomyces cerevisiae. Type of assay: cell-based. The note with it: for MIC: Saccharomyces cerevisiae, X21801A, 48 hrs growth, CLSI. The protocol: Bacteria, plasmids and growth conditions. Bacterial strains, plasmids and primers used in this study are described in Table 3 and 4. General chemical and molecular biology reagents were purchased from Sigma-Aldrich or New England Biolabs. Phosphinothricin (glufosinate) was purchased from GoldBio (CAS #77182-82-2). Standard bacterial growth media were prepared as described (Current Protocols in Molecular Biology 2019, 125:e81, e82, e83). E. coli strains were typically grown at 37° C.; P. ananatis strains were typically grown at 30° C. Phosphonate induction media (PIM) was prepared as follows: 8.37 g/L MOPS, 0.72 g/L Tricine, 0.58 g/L NaCl, 0.51 g/L NH4Cl, 1.6 g/L KOH, 0.1 g/L MgCl2·6H2O, 0.05 g/L K2SO4, 0.2 g/L K2HIPO4 were dissolved H2O and steam sterilized for 20 min at 121° C. After cooling, 1× sterile trace element solution was added (1000× stock: 1.5 g/L nitrilotriacetic acid trisodium salt, 0.8 g/L Fe(NH4)2(SO4)2·7H2O, 0.2 g/L Na2SeO3, 0.1 g/L CoCl2·6H2O, 0.1 g/L MnSO4·H2O, 0.1 g/L Na2MoO4·2H2O, 0.1 g/L Na2WO4·2H2O, 0.1 g/L ZnSO4·7H2O, 0.1 g/L NiCl2·6H2O, 0.01 g/L H3BO3, 0.01 g/L CuSO4·5H2O) followed by addition of 1% (v/v) sterile glycerol and 50 μg/mL sterile kanamycin. For culturing of Candida and Saccharomyces strains, Rosewell Park Memorial Institute 1640 medium (RPMI; Sigma-Aldrich R6504) was used for liquid culturing and Sabouraud Dextrose Agar (SDA; Difco™ 210950) for solid plating unless otherwise specified. For Aspergillus strains, Rosewell Park Memorial Institute 1640 medium (RPMI) was used for liquid culturing and Potato Dextrose Agar (PDA; Difco™ 213400) was used for solid plating unless otherwise specified. YMM medium (6.7 g/L yeast nitrogen base without amino acids [BD Difco™ 291940], 20 g/L glucose, 1× trace element solution) was used as minimal media for fungal strains.
as §3

Read-outs that look alike come from different tables or passages of the source.

On to `O=C(O)/C=C(\C(=O)O)C(O)P(=O)(O)O` (stereo not drawn) [pantaphos, 2-(hydroxy(phosphono)methyl)maleate], for which the Emax was 38 to 45% in assay [1]; 91% in assay [2] (Homo sapiens, MDA-MB-231, Alamar Blue, 72-hour treatment); 81 to 92% with CT26 (colon carcinoma) (Mus musculus, CT26, Alamar Blue, 72-hour treatment). Further, the IC50 amounted to 2680 ± 230 nM in assay [2] (Homo sapiens, MDA-MB-231, Alamar Blue, 72-hour treatment (Table 6)) and 3.38 ± 0.09 µM in the assay on CT26 (colon carcinoma) (CT26, Alamar Blue, 72-hour treatment (Table 6)). In addition, the “sensitivity of the cell line to the compound, in words” value (in assay [2] (MDA-MB-231); with CT26 (colon carcinoma) (CT26)) was “sensitive” in each case. Besides, the MIC is above 125 µM in the assay on Candida albicans SN250 (Candida albicans, SN250, RPMI 1640 medium, 48 hrs growth, CLSI, read-out: MIC, Rich medium); above 62.5 µM in assay [3] (M9 minimal medium, read-out: MIC, Minimal medium); above 125 µM in assay [3] (RPMI 1640 medium, read-out: MIC, Rich medium). Moreover, the “effect on the growth of fungi, in words” value (with Candida albicans SN250 (rich or minimal media); in assay [3] (rich or minimal media)) was “no effect on the growth” each time.

By Emax is commonly meant the greatest response seen or fitted, relative to the assay's reference. By IC50 is commonly meant the concentration that gives 50% inhibition. A higher IC50 goes with weaker potency. As a reminder, the MIC is the lowest concentration found to suppress growth.
